Consider 4 compounds from ChEMBL document CHEMBL1146011, “Diaryl substituted pyrrolidinones and pyrrolones as 5-HT2C inhibitors: synthesis and biological evaluation” (Bioorg Med Chem Lett, 2006).

The source made the active and inactive calls. No cut-off for these calls is given here. A value given as a limit tells only on which side of the number the result lay.

A short description of series [1]: Bioavailability in orally dosed rat. Format: ADME, organism-based. The conditions noted are these: in vivo, po.
Series [2] addresses 5-hydroxytryptamine receptor 2A (Homo sapiens, UniProt P28223). The series is described as follows: Binding affinity to human 5HT2A receptor.
Series [3] deals with 5-hydroxytryptamine receptor 2B (Homo sapiens, UniProt P41595). Briefly: Binding affinity to human 5HT2B receptor.
For series [4], the target named is T1, 5-hydroxytryptamine receptor 2C (Homo sapiens, UniProt P28335).
T1 sequence (P28335 whole entry): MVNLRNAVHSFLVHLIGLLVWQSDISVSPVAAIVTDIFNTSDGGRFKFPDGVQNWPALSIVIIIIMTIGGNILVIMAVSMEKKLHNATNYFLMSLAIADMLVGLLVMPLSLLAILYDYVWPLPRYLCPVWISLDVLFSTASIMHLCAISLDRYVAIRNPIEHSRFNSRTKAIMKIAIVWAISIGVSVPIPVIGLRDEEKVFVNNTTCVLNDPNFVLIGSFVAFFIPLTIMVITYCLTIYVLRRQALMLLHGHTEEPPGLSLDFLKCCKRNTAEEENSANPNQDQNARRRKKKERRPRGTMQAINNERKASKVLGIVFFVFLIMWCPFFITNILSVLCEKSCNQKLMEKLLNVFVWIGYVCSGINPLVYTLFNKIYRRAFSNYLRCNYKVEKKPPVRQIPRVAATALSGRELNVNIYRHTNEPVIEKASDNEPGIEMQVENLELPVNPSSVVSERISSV
Briefly: Binding affinity to human 5HT2C receptor.

Series [5] is described as follows: Ratio of drug level in brain against plasma in orally dosed rat. Format: ADME, organism-based. As to conditions: po, read-out: BPR.
Series [6] can be described thus: Plasma clearance in orally dosed rat. Format: ADME, organism-based. As to conditions: po.
Series [7] relates to Rattus norvegicus. The series is described as follows: Drug level in orally dosed rat brain. Format: ADME, organism-based. As to conditions: in vivo, po.
Series [8] is described as follows: Half life in orally dosed rat. Format: ADME, organism-based. The conditions noted are these: in vivo, po.
Series [9] deals with Rattus norvegicus. The series is described as follows: Volume of distribution in orally dosed rat. It is filed as ADME, organism-based. As to conditions: in vivo, po.
In series [10] the target is 5-hydroxytryptamine receptor 1D (Homo sapiens, UniProt P28221). The series is described as follows: Binding affinity to human 5HT1D receptor.
Series [11] addresses 5-hydroxytryptamine receptor 7 (Homo sapiens, UniProt P34969). The series is described as follows: Binding affinity to human 5HT7 receptor.
The target of series [12] is Beta-2 adrenergic receptor (Homo sapiens) (UniProt P07550). The series is described as follows: Binding affinity to human adrenergic beta-2 receptor.
The target of series [13] is D(3) dopamine receptor (Homo sapiens, UniProt P35462). Briefly: Binding affinity to human dopamine D3 receptor.
Series [14] deals with 5-hydroxytryptamine receptor 1B (Homo sapiens, UniProt P28222). The series is described as follows: Binding affinity to human 5HT1B receptor.
Series [15] addresses 5-hydroxytryptamine receptor 6 (Homo sapiens, UniProt P50406). Briefly: Binding affinity to human 5HT6 receptor.
For series [16], the target named is T2, Adrenergic receptor alpha-1 (Homo sapiens, UniProt P35348+P25100+P35368).
T2 sequence (P35348 whole entry): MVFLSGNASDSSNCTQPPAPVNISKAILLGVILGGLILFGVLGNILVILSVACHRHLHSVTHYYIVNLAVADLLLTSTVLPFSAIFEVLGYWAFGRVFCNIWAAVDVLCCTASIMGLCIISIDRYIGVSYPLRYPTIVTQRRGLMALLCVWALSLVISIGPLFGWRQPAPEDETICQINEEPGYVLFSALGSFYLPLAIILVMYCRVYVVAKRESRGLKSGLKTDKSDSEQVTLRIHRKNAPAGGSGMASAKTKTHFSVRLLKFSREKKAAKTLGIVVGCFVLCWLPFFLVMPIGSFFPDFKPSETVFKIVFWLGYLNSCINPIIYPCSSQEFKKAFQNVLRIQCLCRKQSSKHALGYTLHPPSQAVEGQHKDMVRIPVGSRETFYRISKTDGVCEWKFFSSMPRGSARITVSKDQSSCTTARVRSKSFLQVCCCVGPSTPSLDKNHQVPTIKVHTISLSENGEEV
T2 sequence (P25100 whole entry): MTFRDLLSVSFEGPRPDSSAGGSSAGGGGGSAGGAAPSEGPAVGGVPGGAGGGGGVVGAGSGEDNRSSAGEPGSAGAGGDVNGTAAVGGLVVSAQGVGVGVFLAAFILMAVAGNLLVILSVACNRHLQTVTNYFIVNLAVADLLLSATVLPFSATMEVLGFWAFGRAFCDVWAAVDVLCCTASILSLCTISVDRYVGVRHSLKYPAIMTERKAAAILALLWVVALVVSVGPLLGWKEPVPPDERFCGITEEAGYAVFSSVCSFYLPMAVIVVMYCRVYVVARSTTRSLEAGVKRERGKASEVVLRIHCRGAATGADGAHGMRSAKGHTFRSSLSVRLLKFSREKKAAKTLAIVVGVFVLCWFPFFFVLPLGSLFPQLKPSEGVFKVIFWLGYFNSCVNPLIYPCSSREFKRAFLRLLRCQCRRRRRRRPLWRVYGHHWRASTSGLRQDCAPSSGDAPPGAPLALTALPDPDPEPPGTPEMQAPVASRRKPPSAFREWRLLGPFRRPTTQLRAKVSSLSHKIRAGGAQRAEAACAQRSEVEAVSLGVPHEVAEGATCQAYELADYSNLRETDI
T2 sequence (P35368 whole entry): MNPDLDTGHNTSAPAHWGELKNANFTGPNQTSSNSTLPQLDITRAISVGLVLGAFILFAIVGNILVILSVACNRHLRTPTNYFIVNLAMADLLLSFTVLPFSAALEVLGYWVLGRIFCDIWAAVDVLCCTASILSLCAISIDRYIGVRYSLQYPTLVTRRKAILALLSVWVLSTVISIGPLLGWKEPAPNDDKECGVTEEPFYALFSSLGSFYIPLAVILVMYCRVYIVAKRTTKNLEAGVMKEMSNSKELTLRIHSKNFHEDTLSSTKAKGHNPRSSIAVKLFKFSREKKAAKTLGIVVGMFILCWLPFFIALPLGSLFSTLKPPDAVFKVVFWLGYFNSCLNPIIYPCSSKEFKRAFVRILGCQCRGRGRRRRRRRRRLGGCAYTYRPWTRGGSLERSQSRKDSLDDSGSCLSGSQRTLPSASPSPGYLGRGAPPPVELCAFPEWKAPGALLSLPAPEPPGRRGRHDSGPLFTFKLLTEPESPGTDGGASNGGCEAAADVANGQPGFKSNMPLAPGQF
The series is described as follows: Binding affinity to human adrenergic alpha-1 receptor. Format: protein assay.

For series [17], the target named is D(2) dopamine receptor (Homo sapiens) (UniProt P14416). The series is described as follows: Binding affinity to human dopamine D2 receptor.
Series [18] deals with T3, 5-hydroxytryptamine receptor 1A (Homo sapiens, UniProt P08908).
T3 sequence (P08908 whole entry): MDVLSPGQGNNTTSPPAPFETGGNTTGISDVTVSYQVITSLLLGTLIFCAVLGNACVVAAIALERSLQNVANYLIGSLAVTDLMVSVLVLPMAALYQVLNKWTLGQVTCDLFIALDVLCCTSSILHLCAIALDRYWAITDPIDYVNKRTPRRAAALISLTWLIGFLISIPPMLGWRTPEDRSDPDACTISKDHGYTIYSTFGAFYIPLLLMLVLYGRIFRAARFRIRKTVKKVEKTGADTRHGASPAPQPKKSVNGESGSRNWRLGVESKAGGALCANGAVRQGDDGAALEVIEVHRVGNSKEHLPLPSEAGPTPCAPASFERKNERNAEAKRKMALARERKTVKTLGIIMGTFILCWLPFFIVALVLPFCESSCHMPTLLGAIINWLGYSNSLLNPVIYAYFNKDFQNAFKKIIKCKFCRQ
Briefly: Binding affinity to human 5HT1A receptor.

5-hydroxytryptamine receptor 2A, sequence (P28223 whole entry): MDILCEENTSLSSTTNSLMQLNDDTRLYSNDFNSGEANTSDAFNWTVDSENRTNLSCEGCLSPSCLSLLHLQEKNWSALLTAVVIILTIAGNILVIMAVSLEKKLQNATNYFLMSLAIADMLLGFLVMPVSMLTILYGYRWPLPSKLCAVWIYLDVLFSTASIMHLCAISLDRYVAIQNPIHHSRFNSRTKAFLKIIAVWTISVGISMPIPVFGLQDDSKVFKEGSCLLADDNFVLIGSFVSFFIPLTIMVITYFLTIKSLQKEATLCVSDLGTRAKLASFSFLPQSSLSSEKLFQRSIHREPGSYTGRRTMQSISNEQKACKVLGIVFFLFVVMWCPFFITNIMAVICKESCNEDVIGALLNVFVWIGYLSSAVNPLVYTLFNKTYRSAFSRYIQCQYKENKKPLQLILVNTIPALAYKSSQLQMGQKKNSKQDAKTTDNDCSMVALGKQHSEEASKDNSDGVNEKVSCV
5-hydroxytryptamine receptor 2B, sequence (P41595 whole entry): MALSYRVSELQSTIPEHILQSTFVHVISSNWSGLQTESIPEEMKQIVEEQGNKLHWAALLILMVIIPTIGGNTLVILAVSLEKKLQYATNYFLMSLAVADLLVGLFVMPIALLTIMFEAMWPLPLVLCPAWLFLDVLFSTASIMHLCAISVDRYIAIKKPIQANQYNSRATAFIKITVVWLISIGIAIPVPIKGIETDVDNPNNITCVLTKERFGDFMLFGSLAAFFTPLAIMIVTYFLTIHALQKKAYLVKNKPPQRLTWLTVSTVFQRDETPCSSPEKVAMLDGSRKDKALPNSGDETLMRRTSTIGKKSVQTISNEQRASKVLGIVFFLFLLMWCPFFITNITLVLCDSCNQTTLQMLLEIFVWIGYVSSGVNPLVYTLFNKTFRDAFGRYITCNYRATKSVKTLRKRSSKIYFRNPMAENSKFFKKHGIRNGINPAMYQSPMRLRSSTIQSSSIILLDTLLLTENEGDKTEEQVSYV
D(2) dopamine receptor (Homo sapiens), sequence (P14416 whole entry): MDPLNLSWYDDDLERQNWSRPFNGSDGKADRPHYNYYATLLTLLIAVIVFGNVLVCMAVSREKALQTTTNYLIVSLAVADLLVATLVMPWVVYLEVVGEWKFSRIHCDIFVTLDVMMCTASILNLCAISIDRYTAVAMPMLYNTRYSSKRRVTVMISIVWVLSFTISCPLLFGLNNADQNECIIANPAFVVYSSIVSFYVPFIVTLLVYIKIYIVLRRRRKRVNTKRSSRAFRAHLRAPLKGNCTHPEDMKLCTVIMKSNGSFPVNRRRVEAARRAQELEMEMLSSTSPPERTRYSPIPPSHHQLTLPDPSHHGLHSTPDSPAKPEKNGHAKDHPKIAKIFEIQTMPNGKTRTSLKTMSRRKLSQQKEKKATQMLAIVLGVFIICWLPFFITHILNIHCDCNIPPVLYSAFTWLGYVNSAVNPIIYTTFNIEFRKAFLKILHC
5-hydroxytryptamine receptor 6, sequence (P50406 whole entry): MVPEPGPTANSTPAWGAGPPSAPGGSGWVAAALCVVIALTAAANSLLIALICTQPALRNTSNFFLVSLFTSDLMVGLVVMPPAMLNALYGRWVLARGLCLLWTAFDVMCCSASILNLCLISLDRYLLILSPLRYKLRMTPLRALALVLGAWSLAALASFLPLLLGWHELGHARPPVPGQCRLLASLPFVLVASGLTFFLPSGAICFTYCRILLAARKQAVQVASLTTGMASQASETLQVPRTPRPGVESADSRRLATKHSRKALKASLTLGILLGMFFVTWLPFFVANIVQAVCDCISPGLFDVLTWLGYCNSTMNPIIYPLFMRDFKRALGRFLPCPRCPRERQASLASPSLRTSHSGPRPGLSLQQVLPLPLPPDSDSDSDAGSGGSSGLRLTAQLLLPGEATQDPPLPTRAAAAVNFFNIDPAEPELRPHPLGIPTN
5-hydroxytryptamine receptor 1D, sequence (P28221 whole entry): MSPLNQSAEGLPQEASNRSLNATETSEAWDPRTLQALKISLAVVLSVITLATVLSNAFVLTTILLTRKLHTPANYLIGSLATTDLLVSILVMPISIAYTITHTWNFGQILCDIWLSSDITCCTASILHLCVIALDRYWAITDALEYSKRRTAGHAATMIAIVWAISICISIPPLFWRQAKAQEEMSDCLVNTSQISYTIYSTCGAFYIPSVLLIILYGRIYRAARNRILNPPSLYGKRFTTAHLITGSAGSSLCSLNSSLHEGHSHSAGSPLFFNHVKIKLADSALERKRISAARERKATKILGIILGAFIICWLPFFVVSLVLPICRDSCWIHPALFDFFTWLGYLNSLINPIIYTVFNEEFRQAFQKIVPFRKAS
Beta-2 adrenergic receptor (Homo sapiens), sequence (P07550 whole entry, looked up): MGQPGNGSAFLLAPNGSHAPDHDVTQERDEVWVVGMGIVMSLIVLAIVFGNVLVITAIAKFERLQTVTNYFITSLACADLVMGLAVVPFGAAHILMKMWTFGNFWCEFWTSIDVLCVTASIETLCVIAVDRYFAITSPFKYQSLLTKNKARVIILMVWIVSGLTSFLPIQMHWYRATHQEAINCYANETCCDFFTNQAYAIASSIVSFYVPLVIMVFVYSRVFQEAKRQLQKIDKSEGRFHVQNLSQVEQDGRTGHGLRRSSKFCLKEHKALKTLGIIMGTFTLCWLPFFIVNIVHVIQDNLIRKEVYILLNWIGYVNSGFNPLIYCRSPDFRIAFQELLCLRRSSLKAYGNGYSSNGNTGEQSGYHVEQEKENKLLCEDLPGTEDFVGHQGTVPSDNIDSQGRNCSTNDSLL
D(3) dopamine receptor, sequence (P35462 whole entry): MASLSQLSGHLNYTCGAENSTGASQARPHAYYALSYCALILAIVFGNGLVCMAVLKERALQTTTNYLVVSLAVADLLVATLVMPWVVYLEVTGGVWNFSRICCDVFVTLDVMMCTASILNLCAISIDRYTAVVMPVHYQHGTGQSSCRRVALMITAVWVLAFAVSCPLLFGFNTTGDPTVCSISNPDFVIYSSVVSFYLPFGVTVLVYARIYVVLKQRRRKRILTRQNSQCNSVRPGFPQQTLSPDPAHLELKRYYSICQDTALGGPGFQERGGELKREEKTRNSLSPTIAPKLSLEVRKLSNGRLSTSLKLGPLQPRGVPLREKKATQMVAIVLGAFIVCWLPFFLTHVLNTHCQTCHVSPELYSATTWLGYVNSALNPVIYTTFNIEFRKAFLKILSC
5-hydroxytryptamine receptor 1B, sequence (P28222 whole entry): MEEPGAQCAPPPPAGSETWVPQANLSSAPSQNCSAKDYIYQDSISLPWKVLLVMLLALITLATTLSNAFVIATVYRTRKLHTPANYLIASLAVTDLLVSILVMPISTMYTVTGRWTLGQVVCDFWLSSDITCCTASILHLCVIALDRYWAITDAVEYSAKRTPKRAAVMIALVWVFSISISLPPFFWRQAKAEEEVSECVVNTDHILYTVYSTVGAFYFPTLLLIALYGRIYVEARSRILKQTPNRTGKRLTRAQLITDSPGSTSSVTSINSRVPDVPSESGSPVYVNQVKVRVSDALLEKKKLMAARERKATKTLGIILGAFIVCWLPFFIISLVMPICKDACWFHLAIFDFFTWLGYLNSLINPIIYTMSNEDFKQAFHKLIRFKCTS
5-hydroxytryptamine receptor 7, sequence (P34969 whole entry): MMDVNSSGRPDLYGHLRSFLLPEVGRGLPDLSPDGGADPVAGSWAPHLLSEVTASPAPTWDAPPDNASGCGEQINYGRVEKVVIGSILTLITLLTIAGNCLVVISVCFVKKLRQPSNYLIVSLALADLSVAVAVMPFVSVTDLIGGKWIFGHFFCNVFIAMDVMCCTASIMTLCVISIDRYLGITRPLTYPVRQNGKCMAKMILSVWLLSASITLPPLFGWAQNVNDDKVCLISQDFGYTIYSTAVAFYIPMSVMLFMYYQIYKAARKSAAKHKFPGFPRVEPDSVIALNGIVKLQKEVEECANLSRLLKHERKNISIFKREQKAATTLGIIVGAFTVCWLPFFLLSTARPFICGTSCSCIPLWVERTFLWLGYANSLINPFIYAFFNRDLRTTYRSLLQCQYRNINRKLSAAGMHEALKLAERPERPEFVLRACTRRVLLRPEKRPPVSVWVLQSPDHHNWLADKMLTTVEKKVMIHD

On to `COc1ccc(N2CCC(C)(c3ccc(Cl)c(Cl)c3)C2=O)cc1OCCN1CCCCC1` (centres undefined), for which, in series [1], the bioavailability (in general, dose-corrected exposure relative to a reference, in per cent) came out at 13%. For the same compound, the Ki – broadly, a measure of affinity in units of concentration, obtained from inhibition or displacement – is 631 nM in series [2], 1000 nM in series [3] and 5.01 nM in series [4]. In addition, the Kp in series [5] was determined as 5. In addition, the CL/F (as a rule, the apparent clearance, not corrected for the fraction that reaches the circulation) in series [6] is 65 mL/min/kg.
In turn, `COc1ccc(N2CC=C(c3ccc(Cl)c(Cl)c3)C2=O)cc1OCCN1CCC(C)CC1` yielded a bioavailability in [1] of 52%. In series [7], this compound registered a Drug uptake of 1058 ng/g. Also, the Ki in series [2] was 794 nM; in series [3] it was greater than 794 nM; in [4] it was 3.16 nM. Further, the half-life – broadly, the time in which the quantity being followed falls by half – in series [8] is 4.5 h. The Vdss in series [9] came to 4 L. In series [5], the Kp turned out to be 7.2. Besides, the CL/F in series [6] is 11 mL/min/kg.
Take `COc1ccc(N2CC=C(c3ccc(Cl)c(Cl)c3)C2=O)cc1OCCN1CCCCC1`: the Ki in series [10] was greater than 3160 nM; in [11], greater than 3160 nM; in series [13], 457 nM; in [14], greater than 3160 nM; in series [2], 631 nM; in [3], 631 nM. Moreover, the values for the Ki in series [15], in series [4] and in series [18] were greater than 3160 nM, 0.794 nM and greater than 3160 nM, respectively. The compound also registered a bioavailability in [1] of 11%. In [7], the Drug uptake is recorded as 320 ng/g. The result in series [12] and in series [17] was inactive. The “Log Ki” value in series [16] is recorded as -5.74. In [8], this compound showed a half-life of 2.8 h. The Vdss in series [9] stood at 10.7 L. In series [5], the Kp amounted to 3.9. This compound also returned a CL/F in series [6] of 59 mL/min/kg.
In series [1], `COc1ccc(N2CCC(C)(c3ccc(Cl)c(Cl)c3)C2=O)cc1OCCN1CCC(C)CC1` (centres undefined) yielded a bioavailability of 50%. The Log Ki in series [2] is greater than -6.3. In addition, the results for the Ki in [3] and in series [4] were greater than 794 nM and 5.01 nM, respectively. Moreover, the Kp in [5] was 1.8. This compound gave a CL/F in [6] of 20 mL/min/kg.
